Key:
[1] = viscosity of the composition; assay type: physicochemical; settings: cosmetic emulsion of Example 1 made with the named glycol instead of Bio-PDO
Experimental: Brookfield Model RV−Spindle 5 at 20 rpm for 1 minute (factor×200)
Brookfield Model RV−Spindle T at 5 rpm for 1 minute (factor×10,000)

human skin [2] = test: human skin patch test with approximately 100 subjects; assay type: in vivo; settings: 5, 25, and 50% PDO
Excerpt: (§1) Based on these studies PDO is not expected to be a skin irritant or sensitizer in humans.

human skin [3] = test: second human skin patch test; assay type: in vivo; settings: 25, 50, and 75% (pH 7)
Excerpt: as §1

| viscosity of the cosmetic emulsion containing the glycol [1] | Compound | skin reactions indicative of irritation or sensitization (human skin [2]) | patch test irritation and cumulative irritation of human skin (human skin [3]) |
| --- | --- | --- | --- |
| 9600 cps | CC(CO)CO [2-methyl-1,3-propanediol] | – | – |
| – | OCCCO [PDO, 1,3-propanediol] | did not cause any skin reactions indicative of irritation or sensitization | – |
| 12600 cps | CC(O)CO (centres unmarked) [propylene glycol, 1,2-propanediol] | – | patch test irritants and cumulative irritants for human skin |

| Compound | viscosity of the cosmetic emulsion containing the glycol [1] | skin reactions indicative of irritation or sensitization (human skin [2]) | patch test irritation and cumulative irritation of human skin (human skin [3]) |
| --- | --- | --- | --- |
| CC(O)CCO (centres unmarked) [1,3-butylene glycol] | 6000 cps | – | – |
